Reference: US9181236B2, “2-spiro-substituted iminothiazines and their mono-and dioxides as bace inhibitors, compositions and their use” (Merck Sharp & Dohme Corp., priority 2011, dated 2015)

How the values were obtained:
[1] = biological target: purified human autoBACE-2 (Homo sapiens (Human), UniProt Q9Y5Z0); assay: BACE-2 Assay (BACE-HTRF assay); type: biochemical; details: Ki calculated from IC50 using the Cheng-Prusoff equation; read-out: BACE2 Ki
Description: Inhibitor IC50s at purified human autoBACE-2 are determined in a time-resolved endpoint proteolysis assay that measures hydrolysis of the QSY7-[…]-Eu-amide FRET peptide substrate (BACE-HTRF assay). […] DMSO is present at 5% final concentration in the assay. Following laser excitation of sample wells at 320 nm, the fluorescence signal at 620 nm is collected for 400 ms following a 50 μs delay on a RUBYstar HTRF plate reader (BMG Labtechnologies). Raw RFU data is normalized to maximum (1.0 nM BACE/DMSO) and minimum (no enzyme/DMSO) RFU values. […] The Ki values are calculated from the IC50 using the Cheng-Prusoff equation.

[2] = biological target: soluble human BACE1 catalytic domain (Homo sapiens (Human), UniProt P56817); assay: BACE1 HTRF FRET Assay; type: biochemical; details: for Ki: Ki calculated from IC50 using the Cheng-Prusoff equation; for inhibition at 10 µM: read-out: BACE1 % Inh. at 10 μM
Source text: A homogeneous time-resolved FRET assay can be used to determine IC50 values for inhibitors of the soluble human BACE1 catalytic domain. This assay monitors the increase of 620 nm fluorescence that resulted from BACE1 cleavage of an APPswedish APP^swe mutant peptide FRET substrate (QSY7-[…]-Europium-amide). This substrate contains an N-terminal QSY7 moiety that serves as a quencher of the C-terminal Europium fluorophore (620 nm Em). In the absence of enzyme activity, 620 nm fluorescence is low in the assay and increased linearly over 3 hours in the presence of uninhibited BACE1 enzyme Inhibition of BACE1 cleavage of the QSY7-APP^swe-Eu substrate by inhibitors is manifested as a suppression of 620 nm fluorescence.
Reactions are initiated by addition of 10 μl of 600 nM QSY7-APP^swe-Eu substrate (200 nM final) to give a final reaction volume of 30 μl in a 384 well Nunc HTRF plate. The reactions are incubated at 30° C. for 1.5 hours. The 620 nm fluorescence is then read on a Rubystar HTRF plate reader (BMG Labtechnologies) using a 50 millisecond delay followed by a 400 millisecond acquisition time window Inhibitor IC50 values are derived from non-linear regression analysis of concentration response curves.

soluble human BACE1 catalytic domain, sequence (P56817 75-416): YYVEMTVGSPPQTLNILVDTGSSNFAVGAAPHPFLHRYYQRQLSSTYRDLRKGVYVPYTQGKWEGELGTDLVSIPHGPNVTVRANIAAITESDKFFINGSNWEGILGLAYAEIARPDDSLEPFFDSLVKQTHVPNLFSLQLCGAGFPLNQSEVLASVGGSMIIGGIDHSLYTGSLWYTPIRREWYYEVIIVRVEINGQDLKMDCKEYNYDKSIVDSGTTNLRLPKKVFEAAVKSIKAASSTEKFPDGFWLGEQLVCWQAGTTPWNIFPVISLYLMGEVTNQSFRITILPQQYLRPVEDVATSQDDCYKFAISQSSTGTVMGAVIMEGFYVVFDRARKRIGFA
purified human autoBACE-2, sequence (Q9Y5Z0 63-473 limits assumed): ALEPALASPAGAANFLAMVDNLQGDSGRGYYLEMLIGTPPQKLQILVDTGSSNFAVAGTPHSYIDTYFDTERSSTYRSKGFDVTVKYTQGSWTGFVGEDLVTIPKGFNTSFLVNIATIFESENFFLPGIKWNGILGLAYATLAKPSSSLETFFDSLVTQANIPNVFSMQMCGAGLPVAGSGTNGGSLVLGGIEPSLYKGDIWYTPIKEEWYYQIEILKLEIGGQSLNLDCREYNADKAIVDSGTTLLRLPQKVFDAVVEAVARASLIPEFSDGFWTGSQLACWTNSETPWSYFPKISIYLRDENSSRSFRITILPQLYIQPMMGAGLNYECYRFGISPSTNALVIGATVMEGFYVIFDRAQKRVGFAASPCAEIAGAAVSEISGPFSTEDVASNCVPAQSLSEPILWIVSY

C[C@@]1(c2sc(-c3cncc(C#N)c3)cc2Cl)CS(=O)(=O)C2(CC2)C(=N)N1 [Example 65]
Ki [1]: < 50 nM
Ki [2]: 108 nM

C[C@@]1(c2cc(NC(=O)c3ccc(C#N)cn3)ccc2F)CS(=O)(=O)[C@]2(CCOC2)C(=N)N1 [Example 62e]
Ki [1]: < 20 nM
Ki [2]: 6.1 nM

C[C@@]1(c2sc(-c3cncc(-c4ncco4)c3)cc2Cl)CS(=O)(=O)[C@@]2(CCOC2)C(=N)N1 [Example 63h]
Ki [1]: < 20 nM
Ki [2]: 107 nM

C[C@@]1(c2sc(C#CC3(c4ccccc4)CCCC3)cc2Cl)CS(=O)(=O)C2(CCC2)C(=N)N1 [Example 77]
Ki [1]: < 50 nM
Ki [2]: 2550 nM

C[C@@]1(c2cc(NC(=O)c3ccc(Cl)cn3)ccc2F)CS(=O)(=O)C2(CCOCC2)C(=N)N1 [Example 33]
Ki [1]: 1.6 nM
Ki [2]: 6.1 nM

COc1cnc(C(=O)Nc2ccc(F)c([C@]3(C)CS(=O)(=O)C4(CCC4)C(=N)N3)c2)cn1 [Example 7]
Ki [1]: < 50 nM
Ki [2]: 11.7 nM

C[C@@]1(c2cc(NC(=O)c3ccc(F)cn3)ccc2F)CS(=O)(=O)C2(CC(O)C2)C(=N)N1 (some centres unmarked) [Example 74]
Ki [1]: 3.8 nM
Ki [2]: 21.8 nM

C[C@@]1(c2cc(NC(=O)c3cnc(C(F)(F)F)cn3)ccc2F)CS(=O)(=O)C2(CCCC2)C(=N)N1 [Example 16]
Ki [1]: < 20 nM
Ki [2]: 13 nM

C[C@@]1(c2sc(-c3cccc(-c4nnco4)c3)cc2Cl)CS(=O)(=O)C2(CCCCC2)C(=N)N1 [Example 47a]
Ki [1]: < 50 nM
Ki [2]: 35.9 nM

C[C@@]1(c2cc(NC(=O)c3ccc(F)cn3)ccc2F)CS(=O)(=O)C2(CCC2)C(=N)N1 [Example 8]
Ki [1]: 4.2 nM
Ki [2]: 17.1 nM

C[C@@]1(c2cc([N+](=O)[O-])ccc2F)CS(=O)(=O)[C@]2(CCOC2)C(=N)N1
Ki [1]: 2080 nM
Ki [2]: 6690 nM

C[C@@]1(c2cc(NC(=O)c3ccc(F)cn3)ccc2F)CS(=O)(=O)[C@]2(CCOC2)C(=N)N1 [Example 62b]
Ki [1]: 4.3 nM
Ki [2]: 24 nM

C[C@@]1(c2sc(-c3cccc(C(F)(F)F)c3)cc2Cl)CS(=O)(=O)C2(CCOCC2)C(=N)N1 [Example 52]
Ki [1]: < 50 nM
Ki [2]: 147 nM

C[C@@]1(c2sc(-c3cncc(C(F)(F)F)c3)cc2Cl)CS(=O)(=O)C2(CCOCC2)C(=N)N1 [Example 54]
Ki [1]: < 50 nM
Ki [2]: 157 nM

C[C@@]1(c2cc(NC(=O)c3ncc(F)cc3F)ccc2F)CS(=O)(=O)C2(CCC2)C(=N)N1 [Example 9]
Ki [1]: 2.5 nM
Ki [2]: 12.6 nM

COc1cnc(C(=O)Nc2ccc(F)c([C@]3(C)CS(=O)(=O)[C@@]4(CCOC4)C(=N)N3)c2)cn1 [Example 63]
Ki [1]: < 50 nM
Ki [2]: 41 nM

COc1ccc(C(=O)Nc2ccc(F)c([C@]3(C)CS(=O)(=O)[C@@]4(CCOC4)C(=N)N3)c2)nc1 [Example 63a]
Ki [1]: < 20 nM
Ki [2]: 24.2 nM

C[C@@]1(c2cc(N)ccc2F)CS(=O)(=O)C2(CCCCC2)C(=N)N1
Ki [1]: 2800 nM
inhibition at 10 µM [2]: 49%

Cc1nc(C(=O)Nc2ccc(F)c([C@]3(C)CS(=O)(=O)C4(CCCC4)C(=N)N3)c2)no1 [Example 21]
Ki [1]: 1.3 nM
Ki [2]: 13.9 nM

C[C@@]1(c2sc(-c3cccc(-c4nnco4)c3)cc2Cl)CS(=O)(=O)[C@@]2(CCOC2)C(=N)N1 [Example 63g]
Ki [1]: < 50 nM
Ki [2]: 20.2 nM

C[C@@]1(c2cc(NC(=O)c3ccc(C#N)cn3)ccc2F)CS(=O)(=O)C2(CCC2)C(N)=N1 [Example 11]
Ki [1]: < 20 nM
Ki [2]: 5.4 nM

C[C@@]1(c2cc(NC(=O)c3ccc(F)cn3)ccc2F)CS(=O)(=O)C2(CCC(O)C2)C(=N)N1 (single isomer, unassigned) [Example 76b]
Ki [1]: < 50 nM
Ki [2]: 104 nM

C[C@@]1(c2sc(C#CCc3cc(F)c(F)c(F)c3)cc2Cl)CS(=O)(=O)C2(CCC2)C(=N)N1 [Example 78]
Ki [1]: < 20 nM
inhibition at 10 µM [2]: 17%

C[C@@]1(c2sc(-c3cccc(C#N)c3)cc2Cl)CS(=O)(=O)C2(CCC2)C(=N)N1 [Example 61]
Ki [1]: < 20 nM
Ki [2]: 35.6 nM

C[C@@]1(c2cc(NC(=O)c3ccc(F)cn3)ccc2F)CS(=O)(=O)C2(CC(O)C2)C(=N)N1 (some centres unmarked) [Example 75]
Ki [1]: 1.7 nM
Ki [2]: 12.5 nM

C[C@@]1(c2sc(Br)cc2Cl)CS(=O)(=O)C2(CCC2)C(=N)N1
Ki [1]: 531 nM
Ki [2]: 1570 nM

COc1cccc(NC(=O)c2cc(Cl)c([C@]3(C)CS(=O)(=O)C4(CC4)C(=N)N3)s2)n1 [Example 79a]
Ki [1]: < 20 nM
Ki [2]: 74 nM

COc1cccc2cc(-c3cc(Cl)c([C@]4(C)CS(=O)(=O)C5(CCC5)C(=N)N4)s3)[nH]c12 [Example 58]
Ki [1]: 1 nM
Ki [2]: 7.7 nM

C[C@@]1(c2cc(N)ccc2F)CS(=O)(=O)C2(CCCC2)C(=N)N1
Ki [1]: 1420 nM
Ki [2]: 4130 nM

C[C@@]1(c2cc(NC(=O)c3ccn(C(F)F)n3)ccc2F)CS(=O)(=O)C2(CCCC2)C(=N)N1 [Example 22]
Ki [1]: 4.3 nM
Ki [2]: 12.7 nM

C[C@@]1(c2sc(-c3cncc(C#N)c3)cc2Cl)CS(=O)(=O)C2(CCCCC2)C(=N)N1 [Example 46]
Ki [1]: < 50 nM
Ki [2]: 114 nM

C[C@@]1(c2sc(-c3ccnc(-c4ccsc4)c3)cc2Cl)CS(=O)(=O)[C@@]2(CCOC2)C(=N)N1 [Example 63n]
Ki [1]: < 20 nM
Ki [2]: 428 nM

COc1ccc(C(=O)Nc2ccc(F)c([C@]3(C)CS(=O)(=O)[C@]4(CCOC4)C(=N)N3)c2)nc1 [Example 62a]
Ki [1]: < 20 nM
Ki [2]: 30.3 nM

C[C@@]1(c2cc([N+](=O)[O-])ccc2F)CS(=O)(=O)C2(CCCC2)C(=N)N1
Ki [1]: 734 nM
inhibition at 1 µM ([2]; read-out: BACE1 % Inh. at 1 μM): 44%

COc1ccc(C(=O)Nc2ccc(F)c([C@]3(C)CS(=O)(=O)C4(CCC4)C(=N)N3)c2)nc1 [Example 10]
Ki [1]: < 20 nM
Ki [2]: 10.7 nM

C[C@@]1(c2cc(NC(=O)c3ccc(F)cn3)ccc2F)CS(=O)(=O)C2(CCCC2)C(=N)N1 [Example 13]
Ki [1]: 0.3 nM
Ki [2]: 3.1 nM

C[C@@]1(c2sc(Br)cc2Cl)CS(=O)(=O)C2(CCOCC2)C(=N)N1
Ki [1]: 1090 nM
Ki [2]: 2370 nM

C[C@@]1(c2cc(N)ccc2F)CS(=O)(=O)C2(CCC2)C(=N)N1
Ki [1]: 3970 nM
inhibition at 10 µM [2]: 54%

C[C@@]1(c2cc(NC(=O)c3ccc(Cl)cn3)ccc2F)CS(=O)(=O)C2(CCCC2)C(=N)N1 [Example 12]
Ki [1]: 0.3 nM
Ki [2]: 1.3 nM

C[C@@]1(c2sc(-c3cncc(C#N)c3)cc2Cl)CS(=O)(=O)C2(CCC2)C(=N)N1 [Example 59]
Ki [1]: < 20 nM
Ki [2]: 56 nM

C[C@@]1(c2sc(-c3cccc(-c4nnco4)c3)cc2Cl)CS(=O)(=O)C2(CC2)C(=N)N1 [Example 65a]
Ki [1]: < 50 nM
Ki [2]: 11 nM

COc1ccc(C(=O)Nc2ccc(F)c([C@]3(C)CS(=O)(=O)C4(CCOCC4)C(=N)N3)c2)nc1 [Example 35]
Ki [1]: < 20 nM
Ki [2]: 16.4 nM

C[C@@]1(c2cc(NC(=O)c3ccc(C(F)(F)F)cn3)ccc2F)CS(=O)(=O)[C@]2(CCOC2)C(=N)N1 [Example 62d]
Ki [1]: < 50 nM
Ki [2]: 17 nM

C[C@@]1(c2sc(-c3ccnc(-c4ccccc4)c3)cc2Cl)CS(=O)(=O)[C@]2(CCOC2)C(=N)N1 [Example 62n]
Ki [1]: < 20 nM
Ki [2]: 313 nM

C[C@@]1(c2sc(-c3cccc(C#N)c3)cc2Cl)CS(=O)(=O)C2(CCOCC2)C(=N)N1 [Example 49]
Ki [1]: < 50 nM
Ki [2]: 113 nM

C[C@@]1(c2cc(NC(=O)c3ccc(Cl)cn3)ccc2F)CS(=O)(=O)[C@]2(CCOC2)C(=N)N1 [Example 62c]
Ki [1]: 1.8 nM
Ki [2]: 8.1 nM
